# Experimental data: patent US10946098B2, “Activatable two-component photosensitizers” (Carnegie Mellon University, priority 2014, dated 2021)
# Read-outs that look alike come from different tables or passages of the source.
# Tests used:
# [1] = target: dL5; assay: KD measurement of fluorogen-dL5; conditions: fluorogen binding to dL5
# Procedure: (§1) FIGS. 7A-7C: FIG. 7A) KD measurement of MG-dL5 and MG2I-dL5, FIG. 7B) absorption spectra of 1 μM MG2I and MG2I with 5 μM dL5 (shorter wavelength absorption peak), FIG. 7C): fluorescence quantum yield measurement of MG2I-dL5 (squares) using Cy5 as standard (circles).
# The iodination effect produces a 22 nm bathochromic shift of the x band of free MG while maintaining the FAP-fluorogen interactions. The iodination also renders the excitation maximum of MG2I-dL5 to 666 nm (compare to MG-dL5 at 633 nm), into the near infrared range (Table 1). FIGS. 7A-7C depict (FIG. 7A) KD measurement of MG-dL5 and MG2I-dL5, (FIG. 7B) absorption spectra of 1 μM MG2I and MG2I with 5 μM dL5 (shorter wavelength absorption peak), and (FIG. 7C) fluorescence quantum yield measurement of MG2I-dL5 (squares) using Cy5 as standard (circles).
# [2] = test system: cardiac function of zebrafish larvae; assay: Photo-ablation of cardiac function of larval zebrafish; format: in vivo; conditions: 500 nM fluorogen 3 hours
# From the text: MG2I-FAP induced photo-ablation of cardiac function of transgenic zebrafish. […] In both control groups, development proceeded normally. Scale Bar=1000 μm and applied to all images.
# First, transgenic zebrafish lines were produced that expressed a cytoplasmic FAP-mCerulean3 (FAP-mCer3) tandem protein under control of the heart-specific myosin light chain 7 (my17, also known as cmlc2) promoter, Tg(my17: FAP-mCer3). […] FIG. 19 are photomicrographs of zebrafish larvae as described above. White denotes the presence of cytoplasmic FAP-mCerulean3 in live cells.
# [3] = Absorbance of free fluorogens; format: physicochemical; conditions: for x band abs max (nm) / y band abs max (nm) / λAbs (nm) (Fluorogen): free fluorogen; for ε (10^4 M^−1cm^−1): second value in parentheses not explained
# [4] = test system: dL5; assay: Fluorescence quantum yield using Cy5 as standard; format: physicochemical; conditions: fluorescence quantum yield of FAP-fluorogen, PBS7.4
# Procedure: as §1
# The 3, 5-diiodo-4-hydroxybenzaldehyde, anthracene-9, 10-dipropionic acid disodium salt ADPA, were purchased from VWR international and Sigma-Aldrich, tetrasulfonated aluminum phthalocyanine AlPcS4 from frontier scientific, PEG-catalase, PEG-SOD, hoechst dye 33342, live/dead cell viability/cytotoxicity kit L-3224 and dihydroethidium (hydroethidine) D11347 were from Molecular Probes. Basic media was from Invitrogen. H NMR and C NMR data are recorded from Bruker Avance™ 300 MHz and 500 MHz. Mass spectra are obtained from Thermo-Fisher LCQ ESI/APCI Ion Trap. Final products are purified by silica, neutral alumina and reverse-phase chromatography, purity were tested by UPLC. Raw absorbance values of respective free dyes and dye-FAP complex were measured on a PerkinElmer Lambda45 spectrophotometer. Fluorogenic enhancement was measured in 96 well microplates on a Tecan Safire2 reader. Quantum yields were determined by comparing integrated spectra of MG2I-dL5 complexes with Cy5 in PBS7.4 on a Quantamaster monochromator fluorimeter (Photon Technology International).
# [5] = test system: dL5; assay: Fluorescence excitation/emission of fluorogen bound to dL5; format: physicochemical; conditions: for λem (nm) / λex (nm): FAP-fluorogen complex; for +dL5 fluor ex (nm): main value
# [6] = Singlet oxygen quantum yield by ADPA bleaching, AlPcS4 standard; format: physicochemical; conditions: singlet oxygen quantum yield of FAP-fluorogen
# Procedure: Determination of singlet oxygen quantum yield: PBS 7.4 solution contains 0.1 mM ADPA and optically matched samples are illuminated from a 660 nm LED source, at different time point, its fluorescence decrease at 374/402 nm was recorded, the data was then fitted into a linear plot, the ψΔ was then calculated from the slopes using the equation below.
# To test the two-component FAP photosensitizer ability to generate singlet oxygen, anthracene-9, 10-dipropionic acid (ADPA), a commonly used singlet oxygen scavenger, was used. This was done by monitoring the fluorescence disappearance of ADPA at 374/402 nm. Aluminum phthalocyanine tetrasulfonate (AlPcS4) was used as the standard for the measurement of ^1O2 generation (ψΔ=0.34). Optically matched solutions of MG2I-dL5 and AlPcS4 at 660 nm are compared and the singlet oxygen quantum yield of the two-component FAP photosensitizer is estimated to be 0.13 (FIG. 8). […] This confirmed the specific generation of singlet oxygen from the complex. Importantly, both the fluorescent quantum yield and the singlet oxygen quantum yield of free dyes are not detectable under normal excitation conditions, due to the very short excited state lifetime (<1 […]). […] Moreover, with near infrared excitation, this genetically encoded complex is accessible for a range of tumors and can also be used as tool for tumor visualization with fair fluorescence.
# [7] = test system: HEK cells transfected to express FAP
# Procedure: Dead/Live cell viability assay: 400 nM dye (MG/MG-2I) was pre-complex with cells for 30 mins. After illumination, the buffer was replaced with 2 μM calcein AM and 4 μM EthD-1 working solution. After 30 min incubation at room temperature, the two-color fluorescence cell viability test was conducted with the cells.
# Cell killing experiment and cell death count: MG/MG2I was added to the cells 30 minutes before illumination (for A431 and SKBR3 cells, affibody conjugated FAP was added 1 hour prior to illumination). Microscope and light box are used as illumination source, different light dose are achieved by changing of light intensity or illumination time. For death cell counting, the medium was replaced with PBS containing 1 uM propidium iodide and 8 uM Hoechst right after illumination. After 30 min incubation, cells were counted and the death cell ratio is determined by the ratio of PI to Hoechst.
# The light induced cytotoxicity of two-component FAP photosensitizer on HEK cells, which were transfected to express FAP on cell surface, was tested. 400 nM MG2I/MG was added to the cell medium 30 minutes prior to illumination; 1 minute of continuous red light illumination from a confocal microscope was applied to cells (40× objective, 640 nm excitation, 0.76 W/cm^2).
# The cause of MG2I-dL5 induced cell cytotoxicity was further delineated by adding different ROS quenchers to the solutions.
# [8] = test system: cell surface EGFR (A431 cells); assay: Cell surface EGFR labeling by ZEGFR:1907 fusion probes on A431 cells; format: binding, human
# Procedure: The labeling of cell surface EGFR by ZEGFR:1907 fusion probes was tested with A431 cells, a cell line that expressed EGFR at high levels, ˜2000000/cell. […] By equilibrium binding fluorescence, the cell surface dissociation constant was estimated to be 122±16 nM for AF, 101±17 nM for FA and 37±6 nM for AFA.
# [9] = Recombinant ZEGFR:1907/FAPdL5** probes binding to malachite green; conditions: for Kd / kon (*10^6M^−1S^−1): binding to malachite green; for Em (nm) / Ex (nm): probe with MG
# Procedure: N and C-terminal fusions were evaluated, as well as a single FAP flanked by two affibodies for their properties to bind and activate MG-fluorogens as well as their binding to target receptors on cultured cells.
# Characterization of recombinant probes affibody ZEGFR:1907 (A) and FAPdL5** (F) binding to malachite green.
# [10] = standard for 1O2 generation; cited from earlier work
# [11] = test system: SKBR3 cancer cells; assay: Selective killing of SKBR3 cancer cells; format: cell-based; conditions: 100 nM HER2 conjugated dL5 then 100 nM MG2I
# Procedure: 100 nM HER2 conjugated dL5 was first added to the cells following by 100 nM MG2I.
# (§2) FAP-conjugated HER1 affibody was used to target EGFR over-expressing tumor cells A431 in cell cultures mixed with wild-type HEK cells. 250 nM affiFAP was first added to label A431 cells, followed by 250 nM MG2I/MG. […] It is shown that the tumor cells need to be targeted first by the HER1-dL5 affibody, and become accessible to photosentisization only after MG2I is added and bound to the affiFAP. […] Thus, by controlling the specific generation of singlet oxygen on the tumor site, we can eliminate the nonspecific damage to normal cells. […] This improvement to the current state-of-the-art photodynamic therapy will be of great utility, for example with the methods and modularity described herein.
# [12] = test system: cells; assay: Toxicity of free MG2I to cells; format: cell-based
# [13] = test system: wild-type HEK cells; format: cell-based
# Procedure: as §2
# [14] = test system: EGFR over-expressing tumor cells A431; assay: Selective cancer cell killing, A431 mixed with wild-type HEK; format: cell-based; conditions: 250 nM affiFAP (FAP-conjugated HER1 affibody) then 250 nM dye
# Procedure: AffiFAP/FAP was added first and allow cell targeting for 30 minutes, MG2I/MG-ester was then added and incubated for another 30 minutes (No washing is needed in the process). After 1 min illumination (60× objective, 2.43 W/cm^2), Dead/Live working solution was used to replace the cell culture medium. Two-color viability fluorescence assay was performed after 1 hr staining
# as §2
# [15] = transgenic Tg(my17: FAP-mCer3), 48 hpf, 12 minutes 659 nm 242 mW/cm^2
molecule,measurement,setting,value
"CCOC(=O)CCCOc1ccc(C(=C2C=CC(=[N+](C)C)C=C2)c2ccc(N(C)C)cc2)cc1 [MG, reference compound]",Kd,[1],0.005 nM
same,heart function immediately after illumination,[2]; [15],normal
same,x band abs max (nm),[3],606 nm
same,y band abs max (nm),[3],466 nm
same,λAbs (nm) (Fluorogen),[3],606 nm
same,ε (10^4 M^−1cm^−1),[3],10.3(9.18) 10^4 M^−1cm^−1
same,ΦF,[4],0.123
same,λem (nm),[5],668 nm
same,λex (nm),[5],633 nm
same,+dL5 fluor em (nm),[5]; bound to dL5,668 nm
same,+dL5 fluor ex (nm),[5]; bound to dL5,636 nm
same,"+dL5 fluor ex (nm), value in parentheses","[5]; bound to dL5, second (minor) excitation peak printed in parentheses",482 nm
same,ΦΔ,[6],<0.005
"[N-]=[N+]=[N-] [sodium azide, reference compound]",inhibition of MG2I-dL5 induced cytotoxicity by ROS quencher,[7]; concentrations higher than 10 mM,totally inhibited
AF: fusion of affibody ZEGFR:1907 (A) and FAPdL5** (F),"cell surface labeling, live-cell imaging",[8],clear cell surface labeling
same,Kd,[9],0.43 ± 0.12 nM
same,kon (*10^6M^−1S^−1),[9],1.05 *10^6M^−1S^−1
same,emission peak,[9]; in the presence of MG,664 nm
same,major excitation peak,[9]; in the presence of MG,636 nm
same,minor excitation peak,[9]; in the presence of MG,480 nm
same,Em (nm),[9],664 nm
same,Ex (nm),[9],634 nm
AFA: single FAPdL5** flanked by two ZEGFR:1907 affibodies,"cell surface labeling, live-cell imaging",[8],clear cell surface labeling
same,Kd,[9],0.53 ± 0.11 nM
same,kon (*10^6M^−1S^−1),[9],1.02 *10^6M^−1S^−1
same,emission peak,[9]; in the presence of MG,664 nm
same,fluorescence intensity compared to F and AF,[9]; in the presence of MG,enhanced fluorescence intensity
same,major excitation peak,[9]; in the presence of MG,636 nm
same,minor excitation peak,[9]; in the presence of MG,480 nm
same,Em (nm),[9],666 nm
same,Ex (nm),[9],634 nm
Aluminum phthalocyanine tetrasulfonate [AlPcS4],ψΔ of standard,[10],0.34
"Methylium, bis[4-(dimethylamino)phenyl](4-(3-carboethoxypropyl)-3,5-diiodo-phenyl)-chloride [MG2I]",Kd,[1],0.073 nM
same,killing of SKBR3 cells,[11],selective killing
same,heart function immediately after illumination,[2]; [15],no sign of heart beat or blood circulation
same,heart function immediately after illumination,"[2]; wild-type zebrafish, 12 minutes 659 nm",normal
same,x band abs max (nm),[3],628 nm
same,y band abs max (nm),[3],440 nm
same,λAbs (nm) (Fluorogen),[3],628 nm
same,bathochromic shift of the x band relative to free MG,[3]; iodination effect,22 nm
same,ε (10^4 M^−1cm^−1),[3],10.1(9.02) 10^4 M^−1cm^−1
same,toxicity to cells,[12],no toxicity to cells
same,ΦF,[4],0.037
same,light induced cytotoxicity,[13],no observed light-induced cytotoxicity
same,killing of A431 cells upon illumination,[14],only the EGFR1-expressing tumor cells were killed
same,λem (nm),[5],693 nm
same,λex (nm),[5],666 nm
same,+dL5 fluor em (nm),[5]; bound to dL5,693 nm
same,+dL5 fluor ex (nm),[5]; bound to dL5,666 nm
same,ΦΔ,[6],0.13
affibody: affibody ZEGFR:1907 alone (SEQ ID NO: 18),fluorescence activation or fluorogen binding by affibody alone,[9],No detectable fluorescence activation or fluorogen binding
"catalase: ROS quencher enzyme (protein, UniProt P00432 2-527, looked up, PEG) Catalase: ADNRDPASDQMKHWKEQRAAQKPDVLTTGGGNPVGDKLNSLTVGPRGPLLVQDVVFTDEMAHFDRERIPERVVHAKGAGAFGYFEVTHDITRYSKAKVFEHIGKRTPIAVRFSTVAGESGSADTVRDPRGFAVKFYTEDGNWDLVGNNTPIFFIRDALLFPSFIHSQKRNPQTHLKDPDMVWDFWSLRPESLHQVSFLFSDRGIPDGHRHMNGYGSHTFKLVNANGEAVYCKFHYKTDQGIKNLSVEDAARLAHEDPDYGLRDLFNAIATGNYPSWTLYIQVMTFSEAEIFPFNPFDLTKVWPHGDYPLIPVGKLVLNRNPVNYFAEVEQLAFDPSNMPPGIEPSPDKMLQGRLFAYPDTHRHRLGPNYLQIPVNCPYRARVANYQRDGPMCMMDNQGGAPNYYPNSFSAPEHQPSALEHRTHFSGDVQRFNSANDDNVTQVRTFYLKVLNEEQRKRLCENIAGHLKDAQLFIQKKAVKNFSDVHPEYGSRIQALLDKYNEEKPKNAVHTYVQHGSHLSAREKANL",inhibition of MG2I-dL5 induced cytotoxicity by ROS quencher,[7]; up to 1000 U/mL,very little effect in rescuing cell death
